Measurements: paper PMC6230509 (Neuropharmacology, 2018)
Where two headings read alike, the source gives them in different places.

What was measured:
[1] = test system: head twitch response (5-HT2A receptor-mediated); test: Head twitch response; type: in vivo, C57BL/6J mice; settings: for activity in the HTR assay (in words): C57BL/6J mice, within the dose range tested; for ED50: Mus musculus, ip
[2] = biological target: rat 5-HT2A receptor; settings: read-out: Ki, rat 5-HT2A receptor; [3H]ketanserin; ref Gallaher et al. (1993); cited from earlier work
[3] = humans, ref Shulgin and Shulgin 2004, cited from earlier work
[4] = test system: recombinant human 5-HT2A receptors; settings: ref Arunotayanun et al. 2013; cited from earlier work
[5] = test system: DOM discriminative stimulus; settings: ref Gatch et al. 2017; cited from earlier work
[6] = biological target: 5-HT2A receptor; settings: read-out: Ki vs. [3H]ketanserin, ref Stevenson et al. 2000; cited from earlier work
[7] = test system: 5-MeO-DMT discriminative stimulus; settings: ref Glennon et al. 1980a; cited from earlier work
[8] = read-out: ED50 (95% CI) (mg/kg)
[9] = read-out: ED50 (95% CI) (μmol/kg)
[10] = 0.875 mg/kg IP, duration 30 min
[11] = HTR, IP, male C57BL/6J mice, analysis block 5–30 min depending on drug

C=CCN(CC=C)CCc1c[nH]c2ccc(Br)cc12 [5-Br-DALT, 5-bromo-N,N-diallyltryptamine]
HTR Counts (mean ± SEM) ([1]; 3.5 mg/kg IP, duration 30 min): 5.0 ± 0.3 | HTR Counts (mean ± SEM) ([1]; 7 mg/kg IP, duration 30 min): 10.8 ± 2.7 | HTR Counts (mean ± SEM) ([1]; 14 mg/kg IP, duration 30 min): 8.6 ± 2.7 | HTR Counts (mean ± SEM) ([1]; 28 mg/kg IP, duration 30 min): 1.4 ± 0.4 | HTR Counts (mean ± SEM) ([1]; 56 mg/kg IP, duration 30 min): 1.4 ± 1.4 | activity in the HTR assay (in words) ([1]; IP): active | ED50 [1, 8]: 4.8 mg/kg | ED50 [1, 9]: 13.5 µmol/kg

CN(C)CCc1c[nH]c2ccc(O)cc12 [bufotenine]
Ki [2]: 0.52 µM

C=CCN(CC=C)CCc1c[nH]c2ccc(OC)cc12 [5-MeO-DALT, 5-methoxy-N,N-diallyltryptamine]
duration of psychoactive effects ([3]; oral 12–20 mg): 2 to 4 h | oral doses producing psychoactive effects ([3]; oral): 12 to 20 mg | functional activity at recombinant human 5-HT2A receptors [4]: agonist | substitution in rats trained to discriminate DOM [5]: full substitution | HTR Counts (mean ± SEM) ([1]; 1.75 mg/kg IP, duration 20 min): 6.6 ± 1.0 | HTR Counts (mean ± SEM) ([1]; 3.5 mg/kg IP, duration 20 min): 19.8 ± 1.5 | HTR Counts (mean ± SEM) ([1]; 7 mg/kg IP, duration 20 min): 8.8 ± 2.6 | HTR Counts (mean ± SEM) ([1]; 14 mg/kg IP, duration 20 min): 8.0 ± 4.9 | activity in the HTR assay (in words) ([1]; IP): active | ED50 [1, 8]: 2.25 mg/kg | ED50 [1, 9]: 7.3 µmol/kg

CN(C)CCc1c[nH]c2cccc(O)c12 [psilocin, 4-hydroxy-DMT]
Ki [2]: 5.1 µM

C=CCN(CC=C)CCc1c[nH]c2ccc(F)cc12 [5-F-DALT, 5-fluoro-N,N-diallyltryptamine]
HTR Counts (mean ± SEM) [1, 10]: 9.8 ± 2.6 | HTR Counts (mean ± SEM) ([1]; 1.75 mg/kg IP, duration 30 min): 21.0 ± 5.7 | HTR Counts (mean ± SEM) ([1]; 3.5 mg/kg IP, duration 30 min): 36.0 ± 6.8 | HTR Counts (mean ± SEM) ([1]; 7 mg/kg IP, duration 30 min): 26.8 ± 7.1 | HTR Counts (mean ± SEM) ([1]; 14 mg/kg IP, duration 30 min): 21.0 ± 4.0 | activity in the HTR assay (in words) ([1]; IP): active | ED50 [1, 8]: 1.58 mg/kg | ED50 [1, 9]: 5.4 µmol/kg

CN(C)CCc1c(-c2ccccc2)[nH]c2ccccc12 [2-phenyl-N,N-dimethyltryptamine]
Ki [6]: 0.0044 µM

CCc1cccc2c(CCN(C)C)c[nH]c12 [7-Ethyl-DMT]
substitution in rats trained to discriminate 5-MeO-DMT from vehicle [7]: partial substitution

C=CCN(CC=C)CCc1c[nH]c2ccccc12 [DALT, N,N-diallyltryptamine]
HTR Counts (mean ± SEM) [1, 10]: 8.2 ± 2.8 | HTR Counts (mean ± SEM) ([1]; 1.75 mg/kg IP, duration 30 min): 6.8 ± 2.6 | HTR Counts (mean ± SEM) ([1]; 3.5 mg/kg IP, duration 30 min): 14.2 ± 4.3 | HTR Counts (mean ± SEM) ([1]; 7 mg/kg IP, duration 30 min): 21.8 ± 4.4 | HTR Counts (mean ± SEM) ([1]; 14 mg/kg IP, duration 30 min): 20.6 ± 2.7 | activity in the HTR assay (in words) ([1]; IP): active | ED50 (95% CI) (mg/kg) [1, 11]: 3.42 (2.44–4.79) mg/kg | ED50 (95% CI) (μmol/kg) [1, 11]: 12.3 (8.8–17.3) μmol/kg

CCN(CC)CCc1c(-c2ccccc2)[nH]c2ccccc12 [2-phenyl-N,N-diethyltryptamine]
Ki [6]: 0.0028 µM
